Experimental data: patent US4211772A, “Benzopyran glycoside acetals and ketals” (Laboratoires Sarget, priority 1977, dated 1980)
Converted amounts (≈) assume the structure as drawn. Read-outs that look alike come from different tables or passages of the source.

Key:
Solubilities in water = format: physicochemical; conditions: water; read-out: Solubilities in water
Aldose Reductase = molecular target: T1, Aldose Reductase (Bos taurus, UniProt P16116); assay: Inhibition of aldose reductase in vitro (enzyme from beef eye lenses, glyceraldehyde substrate); format: biochemical; conditions: in DMF solution, read-out: percentages of inhibition (aldose reductase)
T1 construct: The enzyme is extracted from beef eye lenses; from tissue; host or cells: beef eye lenses
Excerpt: Inhibition of Aldose Reductase In Vitro
The reoxidation of NADPH coupled to the enzymatic reaction was followed spectrophotometrically at 340 nm.

carragenin edema = assay: Anti-inflammatory activity: carragenin edema test; format: in vivo; conditions: for % inhibition of carragenin edema: borate buffer pH 7, 24 h; for inhibition in vivo at 100 mg/kg / inhibition in vivo at 200 mg/kg / inhibition in vivo at 300 mg/kg / inhibition in vivo at 75 mg/kg / inhibition in vivo at 150 mg/kg: Rattus norvegicus, ip
Outline: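 Male Wistar EOPS rats receive 0.1 ml of 5% carragenin suspension in physiological serum into the hind-paw metatarsal muscle, with test substance given i.p. in neutralized solution at the same time. Paw edema is measured by plethysmometry at several times after carragenin and reported as % inhibition against pH-matched physiological serum controls.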

capillary resistance = assay: Capillaroprotecting effects: capillary resistance; format: in vivo, male OFA EOPS rats
Description: (§1) Capillaroprotecting effects
The capillary resistance was determined by a variant of the method of Charlier et al, Arch. Inter. Physiol.

capillary permeability = assay: Capillaroprotecting effects: capillary permeability; format: in vivo, conventional male Wistar rats
Description: as §1
The capillary permeability was determined by the method of Charlier et al, Arch. Inter. Physiol.

galactosemic cataract = assay: Galactosemic cataract in rats; format: in vivo, weaning male EOPS Wistar rats; conditions: 100 mg/kg/d i.p.
Description: GALACTOSEMIC CATARACT IN RATS
The study was conducted using weaning male EOPS Wistar rats having an initial weight of between 45 and 50 g. The animals were fed a high vitamin and high protein regimen containing 20% by weight of galactose. The first signs of cataracts, detected by the ophthalmoscope, appeared beginning with the third day. The animals received daily i.p. doses of the test compound, the treatment being started four days after the commencement of the galactosemic regimen. The evolution of the cataract was followed by the detection of maroon rings visible in the ophthalmoscope. These rings appeared on the external edge of the lens and progressed little by little to its center. Anatomopathological studies of the lenses confirmed that these brown rings correspond well to the characteristic histological lesions of galactosemic cataracts. Photographs taken with the aid of a retinograph facilitated the comparison of the evolution of the lesions.
Statistical calculations according to the .chi.^2 method permit an evaluation of the significance of the results obtained for each of the treatments compared to those for non-treated animals.

Wistar EOPS rat = assay: Minimum lethal dose by slow i.v. perfusion in the rat; format: in vivo
Description: The minimum lethal dose of compound No. 1 administered by slow i.v. perfusion in the Wistar EOPS rat is in the neighborhood of 15 mg/kg/min. for 30 min.

C[C@@H]1O[C@@H](OC[C@H]2O[C@@H](Oc3c(-c4ccc(O)c(O)c4)oc4cc(O)cc(O)c4c3=O)[C@H](O)[C@@H](O)[C@@H]2O)[C@@H]2OC(C)(C)O[C@@H]2[C@H]1O [No. 1, 3-O-(2,3-O,O-isopropylidene-6-α-L-rhamnosyl-β-D-glucosyl)-quercetin]
solubility (Solubilities in water): 7000 µg/mL (≈ 10.8 mM)
inhibition at 100 µM (Aldose Reductase; 10^-4 mole/l): 82%
inhibition at 10 µM (Aldose Reductase; 10^-5 mole/l): 32%
% inhibition of carragenin edema (carragenin edema; 75 mg/kg i.p.): 5%
% inhibition of carragenin edema (carragenin edema; 150 mg/kg i.p.): 21%
% inhibition of carragenin edema (carragenin edema; 200 mg/kg i.p.): 0%
inhibition in vivo at 100 mg/kg (carragenin edema; 100 mg/kg i.p., physiological serum, 1/2 h, read-out: % inhibition of carragenin edema): 33%
inhibition in vivo at 200 mg/kg (carragenin edema; 200 mg/kg i.p., physiological serum, 1/2 h, read-out: % inhibition of carragenin edema): 0%
inhibition in vivo at 300 mg/kg (carragenin edema; 300 mg/kg i.p., physiological serum, 1/2 h, read-out: % inhibition of carragenin edema): 30%
inhibition in vivo at 75 mg/kg (carragenin edema; 1 h, pH 7, read-out: % inhibition of carragenin edema, 75 mg/kg i.p., borate buffer pH 7, 1 h): 18%
inhibition in vivo at 75 mg/kg (carragenin edema; 1 h, pH 7, read-out: % inhibition of carragenin edema, 75 mg/kg i.p., borate buffer pH 7, 1 h 1/2): 29%
inhibition in vivo at 150 mg/kg (carragenin edema; 1 h, pH 7, read-out: % inhibition of carragenin edema, 150 mg/kg i.p., borate buffer pH 7, 1 h): 25%
inhibition in vivo at 150 mg/kg (carragenin edema; 1 h, pH 7, read-out: % inhibition of carragenin edema, 150 mg/kg i.p., borate buffer pH 7, 1 h 1/2): 40%
inhibition in vivo at 200 mg/kg (carragenin edema; 1 h, pH 7, read-out: % inhibition of carragenin edema, 200 mg/kg i.p., borate buffer pH 7, 1 h): 16%
inhibition in vivo at 200 mg/kg (carragenin edema; 1 h, pH 7, read-out: % inhibition of carragenin edema, 200 mg/kg i.p., borate buffer pH 7, 1 h 1/2): 37%
inhibition in vivo at 100 mg/kg (carragenin edema; 1 h, read-out: % inhibition of carragenin edema, 100 mg/kg i.p., physiological serum, 1 h): 24%
inhibition in vivo at 200 mg/kg (carragenin edema; 1 h, read-out: % inhibition of carragenin edema, 200 mg/kg i.p., physiological serum, 1 h): 0%
inhibition in vivo at 300 mg/kg (carragenin edema; 1 h, read-out: % inhibition of carragenin edema, 300 mg/kg i.p., physiological serum, 1 h): 37%
inhibition in vivo at 75 mg/kg (carragenin edema; 2 h, pH 7, read-out: % inhibition of carragenin edema, 75 mg/kg i.p., borate buffer pH 7, 2 h): 23%
inhibition in vivo at 150 mg/kg (carragenin edema; 2 h, pH 7, read-out: % inhibition of carragenin edema, 150 mg/kg i.p., borate buffer pH 7, 2 h): 34%
inhibition in vivo at 200 mg/kg (carragenin edema; 2 h, pH 7, read-out: % inhibition of carragenin edema, 200 mg/kg i.p., borate buffer pH 7, 2 h): 38%
inhibition in vivo at 100 mg/kg (carragenin edema; 2 h, read-out: % inhibition of carragenin edema, 100 mg/kg i.p., physiological serum, 2 h): 5%
inhibition in vivo at 200 mg/kg (carragenin edema; 2 h, read-out: % inhibition of carragenin edema, 200 mg/kg i.p., physiological serum, 2 h): 8%
inhibition in vivo at 300 mg/kg (carragenin edema; 2 h, read-out: % inhibition of carragenin edema, 300 mg/kg i.p., physiological serum, 2 h): 8%
inhibition in vivo at 75 mg/kg (carragenin edema; 3 h, pH 7, read-out: % inhibition of carragenin edema, 75 mg/kg i.p., borate buffer pH 7, 3 h): 20%
inhibition in vivo at 150 mg/kg (carragenin edema; 3 h, pH 7, read-out: % inhibition of carragenin edema, 150 mg/kg i.p., borate buffer pH 7, 3 h): 26%
inhibition in vivo at 200 mg/kg (carragenin edema; 3 h, pH 7, read-out: % inhibition of carragenin edema, 200 mg/kg i.p., borate buffer pH 7, 3 h): 30%
inhibition in vivo at 100 mg/kg (carragenin edema; 3 h, read-out: % inhibition of carragenin edema, 100 mg/kg i.p., physiological serum, 3 h): 7%
inhibition in vivo at 200 mg/kg (carragenin edema; 3 h, read-out: % inhibition of carragenin edema, 200 mg/kg i.p., physiological serum, 3 h): 8%
inhibition in vivo at 300 mg/kg (carragenin edema; 3 h, read-out: % inhibition of carragenin edema, 300 mg/kg i.p., physiological serum, 3 h): 16%
inhibition in vivo at 75 mg/kg (carragenin edema; 4 h, pH 7, read-out: % inhibition of carragenin edema, 75 mg/kg i.p., borate buffer pH 7, 4 h): 14%
inhibition in vivo at 150 mg/kg (carragenin edema; 4 h, pH 7, read-out: % inhibition of carragenin edema, 150 mg/kg i.p., borate buffer pH 7, 4 h): 19%
inhibition in vivo at 200 mg/kg (carragenin edema; 4 h, pH 7, read-out: % inhibition of carragenin edema, 200 mg/kg i.p., borate buffer pH 7, 4 h): 21%
inhibition in vivo at 100 mg/kg (carragenin edema; 4 h, read-out: % inhibition of carragenin edema, 100 mg/kg i.p., physiological serum, 4 h): 16%
inhibition in vivo at 200 mg/kg (carragenin edema; 4 h, read-out: % inhibition of carragenin edema, 200 mg/kg i.p., physiological serum, 4 h): 12%
inhibition in vivo at 300 mg/kg (carragenin edema; 4 h, read-out: % inhibition of carragenin edema, 300 mg/kg i.p., physiological serum, 4 h): 27%
inhibition in vivo at 75 mg/kg (carragenin edema; 5 h, pH 7, read-out: % inhibition of carragenin edema, 75 mg/kg i.p., borate buffer pH 7, 5 h): 25%
inhibition in vivo at 150 mg/kg (carragenin edema; 5 h, pH 7, read-out: % inhibition of carragenin edema, 150 mg/kg i.p., borate buffer pH 7, 5 h): 27%
inhibition in vivo at 200 mg/kg (carragenin edema; 5 h, pH 7, read-out: % inhibition of carragenin edema, 200 mg/kg i.p., borate buffer pH 7, 5 h): 30%
inhibition in vivo at 100 mg/kg (carragenin edema; 5 h, read-out: % inhibition of carragenin edema, 100 mg/kg i.p., physiological serum, 5 h): 20%
inhibition in vivo at 200 mg/kg (carragenin edema; 5 h, read-out: % inhibition of carragenin edema, 200 mg/kg i.p., physiological serum, 5 h): 15%
inhibition in vivo at 300 mg/kg (carragenin edema; 5 h, read-out: % inhibition of carragenin edema, 300 mg/kg i.p., physiological serum, 5 h): 30%
inhibition in vivo at 75 mg/kg (carragenin edema; 6 h, pH 7, read-out: % inhibition of carragenin edema, 75 mg/kg i.p., borate buffer pH 7, 6 h): 17%
inhibition in vivo at 150 mg/kg (carragenin edema; 6 h, pH 7, read-out: % inhibition of carragenin edema, 150 mg/kg i.p., borate buffer pH 7, 6 h): 28%
inhibition in vivo at 200 mg/kg (carragenin edema; 6 h, pH 7, read-out: % inhibition of carragenin edema, 200 mg/kg i.p., borate buffer pH 7, 6 h): 18%
inhibition in vivo at 100 mg/kg (carragenin edema; 6 h, read-out: % inhibition of carragenin edema, 100 mg/kg i.p., physiological serum, 6 h): 7%
inhibition in vivo at 200 mg/kg (carragenin edema; 6 h, read-out: % inhibition of carragenin edema, 200 mg/kg i.p., physiological serum, 6 h): 9%
inhibition in vivo at 300 mg/kg (carragenin edema; 6 h, read-out: % inhibition of carragenin edema, 300 mg/kg i.p., physiological serum, 6 h): 27%
inhibition in vivo at 75 mg/kg (carragenin edema; read-out: % inhibition of carragenin edema, 75 mg/kg i.p., borate buffer pH 7, 1/2 h): 18%
inhibition in vivo at 150 mg/kg (carragenin edema; read-out: % inhibition of carragenin edema, 150 mg/kg i.p., borate buffer pH 7, 1/2 h): 15%
inhibition in vivo at 200 mg/kg (carragenin edema; read-out: % inhibition of carragenin edema, 200 mg/kg i.p., borate buffer pH 7, 1/2 h): 9%
% of animals for which the effect is ≥ 25 u cm Hg/h (capillary resistance; 100 mg/kg i.p.): 50%
capillary resistance, effect observed (capillary resistance; 100 mg/kg i.p.): 21.5 ± 4.6 u cm Hg/h
% of animals for which the effect is ≥ 25 u cm Hg/h (capillary resistance; 200 mg/kg i.p.): 90%
capillary resistance, effect observed (capillary resistance; 200 mg/kg i.p.): 41.25 ± 15.3 u cm Hg/h
percentage reduction of capillary permeability (capillary permeability; 400 mg/kg i.p.): 30%
percentage reduction of capillary permeability (capillary permeability; 800 mg/kg i.p.): 37%
percentage of animals which have not yet shown the appearance of cataracts (galactosemic cataract; day 0): 100%
percentage of animals which have not yet shown the appearance of cataracts (galactosemic cataract; day 1): 100%
percentage of animals which have not yet shown the appearance of cataracts (galactosemic cataract; day 2): 87.5%
percentage of animals which have not yet shown the appearance of cataracts (galactosemic cataract; day 3): 81%
percentage of animals which have not yet shown the appearance of cataracts (galactosemic cataract; day 4): 50%
significance compared to non-treated animals (chi^2) (galactosemic cataract; day 4): S
percentage of animals which have not yet shown the appearance of cataracts (galactosemic cataract; day 5): 37.5%
significance compared to non-treated animals (chi^2) (galactosemic cataract; day 5): S
percentage of animals which have not yet shown the appearance of cataracts (galactosemic cataract; day 6): 37.5%
significance compared to non-treated animals (chi^2) (galactosemic cataract; day 6): S
percentage of animals which have not yet shown the appearance of cataracts (galactosemic cataract; day 10): 37.5%
significance compared to non-treated animals (chi^2) (galactosemic cataract; day 10): S
percentage of animals which have not yet shown the appearance of cataracts (galactosemic cataract; day 12): 28%
significance compared to non-treated animals (chi^2) (galactosemic cataract; day 12): S
percentage of animals which have not yet shown the appearance of cataracts (galactosemic cataract; day 16): 19%
significance compared to non-treated animals (chi^2) (galactosemic cataract; day 16): S
percentage of animals which have not yet shown the appearance of cataracts (galactosemic cataract; day -4): 100%
arterial pressure and cardiac frequency, time of maximum (Wistar EOPS rat): attain their maximum values at the twelfth minute of the perfusion
cause of death (Wistar EOPS rat): death occurs by respiratory arrest
hemodynamic effects (Wistar EOPS rat): brief, low intensity hypotension is observed accompanied by bradycardia
minimum lethal dose (Wistar EOPS rat; for 30 min): ~15 mg/kg/min
